Data on 19 molecules can be found in US9796711B2, “Substituted pyrazolo[3,4-b]pyridin-6-carboxylic acids and method of use” (AbbVie S.àr.l., priority 2015, dated 2017).

The structures appear in SMILES notation.

Assay [1] has as its target T1, ΔF508-CFTR (Homo sapiens, UniProt P13569, DEL508-508).
T1 construct: host or cells: CFBE41o-, doxycycline-inducible
The assay is described as follows: CFTR cell surface levels using HRP-tagged ΔF508-CFTR expressing CFBE cells, intrinsic corrector capacity. It counts as cell-based. The following applies: for EC50: read-out: EC50. The method in brief: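 Here the cells express ΔF508-CFTR with horseradish peroxidase inserted in extracellular loop 4, so only rescued channel at the surface gives luminescent signal. Compounds act on their own, 20 h at the reduced temperature of 33 °C; values are percent activity relative to DMSO and a 3 μM corrector.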

The target of assay [2] is T1, ΔF508-CFTR. The assay is described as follows: CFTR cell surface levels using HRP-tagged ΔF508-CFTR expressing CFBE cells, in the presence of a co-corrector. It counts as cell-based. The following applies: HRP-tagged ΔF508-CFTR expressing CFBE cells, in the presence of 3 μM co-corrector; for EC50: read-out: EC50. The gist of the method:
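Cells were seeded with 0.5 μg/mL doxycycline and held 68 h at 37 °C. Test compounds plus 3 μM co-corrector (final 0.1% DMSO) were then added for 20 h at 33 °C. Washed cells received HRP substrate, and luminescence was normalized between DMSO and 3 μM co-corrector controls.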

[3] abbreviates: HRP-tagged ΔF508-CFTR CFBE41o- cells, compounds alone (intrinsic corrector capacity), 20 hours at 33° C., positive control 3 μM corrector.
The mark [4] stands for this setting: HRP-tagged ΔF508-CFTR CFBE41o- cells, compounds alone (intrinsic corrector capacity), 20 hours at 33° C.
[5] abbreviates: HRP-tagged ΔF508-CFTR expressing CFBE cells, intrinsic corrector capacity (no co-corrector), 33° C., 20 hours.
[6] abbreviates: HRP-tagged ΔF508-CFTR CFBE cells, compound alone (intrinsic corrector capacity), 20 hours at 33° C.

T1 sequence (P13569 with tags, fused parts or gaps DEL508-508): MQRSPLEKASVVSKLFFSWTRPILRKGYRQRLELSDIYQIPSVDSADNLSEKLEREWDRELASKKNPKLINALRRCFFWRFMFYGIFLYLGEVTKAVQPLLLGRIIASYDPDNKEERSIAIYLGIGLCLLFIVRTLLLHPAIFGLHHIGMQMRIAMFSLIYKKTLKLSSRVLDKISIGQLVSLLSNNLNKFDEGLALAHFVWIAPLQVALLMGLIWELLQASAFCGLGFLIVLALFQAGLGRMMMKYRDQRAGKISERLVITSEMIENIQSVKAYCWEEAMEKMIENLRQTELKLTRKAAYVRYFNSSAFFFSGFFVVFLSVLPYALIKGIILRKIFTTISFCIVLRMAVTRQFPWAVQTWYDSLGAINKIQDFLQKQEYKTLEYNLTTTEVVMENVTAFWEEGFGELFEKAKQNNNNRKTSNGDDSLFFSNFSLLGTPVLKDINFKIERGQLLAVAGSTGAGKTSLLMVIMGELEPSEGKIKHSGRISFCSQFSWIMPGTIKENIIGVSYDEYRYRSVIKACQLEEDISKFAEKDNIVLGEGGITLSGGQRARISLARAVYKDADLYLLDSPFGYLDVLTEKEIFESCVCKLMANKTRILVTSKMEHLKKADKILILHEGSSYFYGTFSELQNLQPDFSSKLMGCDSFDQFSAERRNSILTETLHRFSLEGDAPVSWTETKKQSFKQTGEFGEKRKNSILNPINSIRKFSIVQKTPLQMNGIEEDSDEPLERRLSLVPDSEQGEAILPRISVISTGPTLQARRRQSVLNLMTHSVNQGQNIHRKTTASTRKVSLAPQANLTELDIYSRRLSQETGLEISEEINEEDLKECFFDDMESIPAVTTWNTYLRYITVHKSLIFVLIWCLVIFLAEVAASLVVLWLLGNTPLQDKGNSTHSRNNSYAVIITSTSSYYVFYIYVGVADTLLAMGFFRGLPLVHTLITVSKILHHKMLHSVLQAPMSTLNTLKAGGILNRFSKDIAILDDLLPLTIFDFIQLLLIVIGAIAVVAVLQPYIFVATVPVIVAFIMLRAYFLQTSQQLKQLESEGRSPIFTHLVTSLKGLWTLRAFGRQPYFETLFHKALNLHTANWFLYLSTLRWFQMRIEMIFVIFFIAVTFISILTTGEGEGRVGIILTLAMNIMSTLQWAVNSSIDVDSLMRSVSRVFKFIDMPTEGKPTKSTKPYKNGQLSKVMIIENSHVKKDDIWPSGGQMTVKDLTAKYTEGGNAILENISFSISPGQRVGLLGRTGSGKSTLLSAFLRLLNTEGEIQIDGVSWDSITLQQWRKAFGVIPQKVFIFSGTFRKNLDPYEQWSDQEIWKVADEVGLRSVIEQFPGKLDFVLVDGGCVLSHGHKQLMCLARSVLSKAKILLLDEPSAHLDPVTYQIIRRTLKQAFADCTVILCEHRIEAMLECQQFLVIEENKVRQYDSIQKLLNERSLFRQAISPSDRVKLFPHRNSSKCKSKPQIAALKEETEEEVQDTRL

Usually EC50 stands for the concentration needed to bring the measured effect to its halfway point. On to `COCCN(C)c1cccc(-n2nc(C(C)C)c3c(-c4ccc(N5CCOCC5)cc4)cc(C(=O)O)nc32)c1` [compound 172, 1-{3-[(2-methoxyethyl)(methyl)amino]phenyl}-4[4-(morpholin-4-yl)phenyl]-3-(propan-2-yl)-1H-pyrazolo[3,4-b]pyridine-6-carboxylic acid], for which the “% Activation” value is listed as 339.33% at ΔF508-CFTR [1] (setting [3]) and 513.1% on ΔF508-CFTR [2]. The values for the EC50 on ΔF508-CFTR [1] (setting [4]) and on ΔF508-CFTR [2] were 615 nM and 480 nM, respectively.

For the molecule `COC(C)(C)C1CCN(c2cc(C(=O)O)nc3c2c(C2CCC2)nn3-c2ccccc2)CC1` [compound 605, 3-cyclobutyl-4-[4-(2-methoxypropan-2-yl)piperidin-1-yl]-1-phenyl-1H-pyrazolo[3,4-b]pyridine-6-carboxylic acid], at ΔF508-CFTR [1] (setting [5]), the “% Activation” value was 292.8% and the EC50 was found to be 82.1 nM. Besides, on ΔF508-CFTR [2], the “% Activation” value turned out to be 531.3% and the concentration for a half-maximal effect (EC50) amounted to 43.6 nM.

Consider `O=C(O)c1cc(N2CC(F)(F)C[C@H]2CO)c2c(C3CCC3)nn(-c3ccccc3)c2n1` [compound 538, 3-cyclobutyl-4-[(2S)-4,4-difluoro-2-(hydroxymethyl)pyrrolidin-1-yl]-1-phenyl-1H-pyrazolo[3,4-b]pyridine-6-carboxylic acid], for which, at ΔF508-CFTR [1] (setting [5]), the “% Activation” value came to 124.6% and the concentration for a half-maximal effect (EC50) came out at 2430 nM. In addition, on ΔF508-CFTR [2], the “% Activation” value came out at 312.05% and the EC50 amounted to 1540 nM.

Consider `CC(C)c1nn(-c2ccc(F)cc2)c2nc(C(=O)O)cc(N3CCN4CCC[C@@H]4C3)c12` [compound 770, 1-(4-fluorophenyl)-4-[(8aR)-hexahydropyrrolo[1,2-a]pyrazin-2(1H)-yl]-3-(propan-2-yl)-1H-pyrazolo[3,4-b]pyridine-6-carboxylic acid], for which, on ΔF508-CFTR [1] (setting [5]), the “% Activation” value came to 85.33% and the EC50 was 1670 nM. At ΔF508-CFTR [2], the “% Activation” value was 234.5% and the EC50 stood at 900 nM.

As for `O=C(O)c1cc(N2CCOC(C(F)(F)F)C2)c2c(C3CCC3)nn(-c3ccccc3)c2n1` (stereo not shown) [compound 596, 3-cyclobutyl-1-phenyl-4-[2-(trifluoromethyl)morpholin-4-yl]-1H-pyrazolo[3,4-b]pyridine-6-carboxylic acid], at ΔF508-CFTR [1] (setting [5]), the “% Activation” value amounted to 99.54% and the EC50 is 735 nM. For the same molecule, at ΔF508-CFTR [2], the “% Activation” value came to 299.4% and the EC50 turned out to be 522 nM.

In the case of `O=C(O)c1cc(N2CC[C@@H](F)[C@H](O)C2)c2c(C3CCC3)nn(-c3ccccc3)c2n1` [compound 465, 3-cyclobutyl-4-[(3R,4R)-4-fluoro-3-hydroxypiperidin-1-yl]-1-phenyl-1H-pyrazolo[3,4-b]pyridine-6-carboxylic acid], on ΔF508-CFTR [1] (setting [5]), the “% Activation” value is 91.04% and the half-maximal effective concentration (EC50) was 1850 nM. Moreover, on ΔF508-CFTR [2], the “% Activation” value is listed as 244.6% and the EC50 came to 703 nM.

`CO[C@H]1CCCC[C@@H]1Oc1cc(C(=O)O)nc2c1c(C1CCC1)nn2-c1ccccc1` [compound 580, 3-cyclobutyl-4-{[(1S,2S)-2-methoxycyclohexyl]oxy}-1-phenyl-1H-pyrazolo[3,4-b]pyridine-6-carboxylic acid]: the figures for the “% Activation” value at ΔF508-CFTR [1] (setting [5]) and on ΔF508-CFTR [2] were 88.82% and 288%, respectively. For the same molecule, the EC50 on ΔF508-CFTR [1] (setting [5]) is 333 nM; on ΔF508-CFTR [2], 312 nM.

For `CC(C)c1nn(C2CCCOC2)c2nc(C(=O)O)cc(-c3ccc(N4CCC(C#N)CC4)nc3)c12` (stereo not shown) [compound 365, 4-[6-(4-cyanopiperidin-1-yl)pyridin-3-yl]-1-(oxan-3-yl)-3-(propan-2-yl)-1H-pyrazolo[3,4-b]pyridine-6-carboxylic acid], the “% Activation” value at ΔF508-CFTR [1] (setting [3]) is given as 147.55%; at ΔF508-CFTR [2], 278.05%. The EC50 on ΔF508-CFTR [1] (setting [4]) turned out to be 2550 nM; on ΔF508-CFTR [2], 1540 nM.

In the case of `O=C(O)c1cc(N2CCC(N3CCOCC3)CC2)c2c(C3CCC3)nn(-c3ccnc(OC4CCOCC4)c3)c2n1` [compound 918, 3-cyclobutyl-4-[4-(morpholin-4-yl)piperidin-1-yl]-1-{2-[(oxan-4-yl)oxy]pyridin-4-yl}-1H-pyrazolo[3,4-b]pyridine-6-carboxylic acid], at ΔF508-CFTR [1] (setting [6]), the “% Activation” value is reported as 149.75% and the half-maximal effective concentration (EC50) is 712 nM. Also, on ΔF508-CFTR [2], the “% Activation” value was 352.1% and the EC50 worked out at 479 nM.

For `CC(C)c1nn(-c2ccc(F)cc2)c2nc(C(=O)O)cc(N3CC(N4CCCC4)C3)c12` [compound 794, 1-(4-fluorophenyl)-3-(propan-2-yl)-4-[3-(pyrrolidin-1-yl)azetidin-1-yl]-1H-pyrazolo[3,4-b]pyridine-6-carboxylic acid], on ΔF508-CFTR [1] (setting [5]), the “% Activation” value came out at 58.82% and the concentration for a half-maximal effect (EC50) was found to be 1670 nM. At ΔF508-CFTR [2], the “% Activation” value turned out to be 168.7% and the 50% effective concentration (EC50) turned out to be 788 nM.

In the case of `O=C(O)c1cc(N2CCC(N3CCC(F)C3)CC2)c2c(C3CCC3)nn(-c3ccc(F)cc3)c2n1` (stereo not shown) [compound 846, 3-cyclobutyl-1-(4-fluorophenyl)-4-[4-(3-fluoropyrrolidin-1-yl)piperidin-1-yl]-1H-pyrazolo[3,4-b]pyridine-6-carboxylic acid], at ΔF508-CFTR [1] (setting [5]), the “% Activation” value was 317.9% and the EC50 was 874 nM. For the same molecule, on ΔF508-CFTR [2], the “% Activation” value was 495.1% and the EC50 was determined as 968 nM.

With `CC(C)(C)c1nn(C2CCCCC2)c2nc(C(=O)O)cc(-c3cnc(N4CCOCC4)nc3)c12` [compound 149, 3-tert-butyl-1-cyclohexyl-4-[2-(morpholin-4-yl)pyrimidin-5-yl]-1H-pyrazolo[3,4-b]pyridine-6-carboxylic acid], the “% Activation” value stood at 112.95% at ΔF508-CFTR [1] (setting [3]) and 296% on ΔF508-CFTR [2]. In addition, the EC50 on ΔF508-CFTR [1] (setting [4]) stood at 653 nM; at ΔF508-CFTR [2], 449 nM.

As to `CC(C)c1nn(-c2cc(F)cc(F)c2)c2nc(C(=O)O)cc(-c3ccc(N4CCC(C#N)CC4)cc3)c12` [compound 282, 4-[4-(4-cyanopiperidin-1-yl)phenyl]-1-(3,5-difluorophenyl)-3-(propan-2-yl)-1H-pyrazolo[3,4-b]pyridine-6-carboxylic acid], the “% Activation” value on ΔF508-CFTR [1] (setting [3]) was found to be 269.33%; on ΔF508-CFTR [2] it was 476.23%. Also, the figures for the EC50 at ΔF508-CFTR [1] (setting [4]) and at ΔF508-CFTR [2] were 492 nM and 341 nM, respectively.

Take `Cc1nn(-c2cccc(N(C)C)c2)c2nc(C(=O)O)cc(-c3ccc(N4CCOCC4)cc3)c12` [compound 36, 1-[3-(dimethylamino)phenyl]-3-methyl-4-[4-(morpholin-4-yl)phenyl]-1H-pyrazolo[3,4-b]pyridine-6-carboxylic acid]: the figures for the “% Activation” value at ΔF508-CFTR [1] (setting [3]) and on ΔF508-CFTR [2] were 118.9% and 364.5%, respectively. For the same molecule, the figures for the EC50 on ΔF508-CFTR [1] (setting [4]) and on ΔF508-CFTR [2] were 2000 nM and 3340 nM, respectively.

For `N#CC1CCN(c2ccc(-c3cc(C(=O)O)nc4c3c(OC3CCNC3)nn4-c3ccccc3)cn2)CC1` (stereo not shown) [compound 550, 4-[6-(4-cyanopiperidin-1-yl)pyridin-3-yl]-1-phenyl-3-[(pyrrolidin-3-yl)oxy]-1H-pyrazolo[3,4-b]pyridine-6-carboxylic acid], the “% Activation” value turned out to be 4.775% on ΔF508-CFTR [1] (setting [5]) and 122.4% on ΔF508-CFTR [2]. The EC50 at ΔF508-CFTR [1] (setting [5]) and on ΔF508-CFTR [2] was greater than 10000 nM each time.

As for `Cc1nn(-c2ccccc2)c2nc(C(=O)O)cc(OCCN(CC(C)C)C3CC3)c12` [compound 385, 4-{2-[cyclopropyl(2-methylpropyl)amino]ethoxy}-3-methyl-1-phenyl-1H-pyrazolo[3,4-b]pyridine-6-carboxylic acid], the “% Activation” value was determined as 54.89% at ΔF508-CFTR [1] (setting [3]) and 238.75% on ΔF508-CFTR [2]. Besides, the EC50 on ΔF508-CFTR [1] (setting [4]) and on ΔF508-CFTR [2] was 1670 nM each time.

For the molecule `O=C(O)c1cc(N2CCN(CC3CCCO3)CC2)c2c(C3CCC3)nn(-c3ccccc3)c2n1` (stereo not shown) [compound 681, 3-cyclobutyl-4-{4-[(oxolan-2-yl)methyl]piperazin-1-yl}-1-phenyl-1H-pyrazolo[3,4-b]pyridine-6-carboxylic acid], the “% Activation” value on ΔF508-CFTR [1] (setting [5]) is 220.95%; on ΔF508-CFTR [2] it was 373.05%. For the same molecule, the EC50 at ΔF508-CFTR [1] (setting [5]) came to 408 nM; on ΔF508-CFTR [2], 197 nM.

For `CC(C)N1CCN(c2ccc(-c3cc(C(=O)O)nc4c3c(C3CCC3)nn4C3CCCCC3)cc2)CC1` [compound 867, 3-cyclobutyl-1-cyclohexyl-4-{4-[4-(propan-2-yl)piperazin-1-yl]phenyl}-1H-pyrazolo[3,4-b]pyridine-6-carboxylic acid], the “% Activation” value on ΔF508-CFTR [1] (setting [5]) was 125.2%; at ΔF508-CFTR [2], 290.65%. Further, the values for the EC50 at ΔF508-CFTR [1] (setting [5]) and on ΔF508-CFTR [2] were 1410 nM and 317 nM, respectively.

In the case of `O=C(O)c1cc(N2CCC(COCc3ccccc3)CC2)c2c(C3CCC3)nn(-c3ccccc3)c2n1` [compound 427, 4-{4-[(benzyloxy)methyl]piperidin-1-yl}-3-cyclobutyl-1-phenyl-1H-pyrazolo[3,4-b]pyridine-6-carboxylic acid], the “% Activation” value at ΔF508-CFTR [1] (setting [5]) is on record as 200.4%; at ΔF508-CFTR [2], 418.9%. Moreover, the results for the EC50 at ΔF508-CFTR [1] (setting [5]) and on ΔF508-CFTR [2] were 663 nM and 577 nM, respectively.
